Where two headings read alike, the source gives them in different places.
Experiments:
[1] = test system: HeLa; experiment: Photo- and cytotoxic activity determination (MTT), HeLa cells; format: cell-based; details: normoxia; for HeLa PI (phototherapeutic index), IC50 dark/IC50 irradiated: 520 nm, dark tested up to 100 μM; for IC50: 48 h drug-free medium
Text: (§1) Having shown that the Ir(III)-COUPY conjugates can sensitize both type I and II ROS through spectroscopic techniques and readily internalize into living cells, their photocytotoxicity was screened in various cancer cell lines. This screening included two representative melanoma cell lines (human A375 and […] human SK-MEL-28) and cancer cells with resistance to the clinical drug cisplatin. For the latter, both sensitive and cisplatin-resistant ovarian cancer cells (A2780 and A2780cis) as well as HeLa cells, which also show a degree of chemoresistance to the platinum anticancer drug in vitro,[54] were used. For the determination of dark and light cytotoxicity, dose–response curves were assayed from both conditions to provide the correspondent IC50 values, which correspond to the concentration needed for inhibition of cell growth by 50%. Phototherapeutic index (PI) was calculated as the ratio of dark to light IC50 value for each compound.
(§2) A375, HeLa, and SK-MEL-28 cells were cultured in Dulbecco’s modified Eagle medium (DMEM) supplemented with 10% FBS, L-glutamine, and 1% penicillin–streptomycin. A2780 and A2780cis cells were grown in RPMI-1640 cell medium supplemented with 10% fetal bovine serum (FBS) and 2 mM L-glutamine. Acquired resistance to cisplatin in the A2780cis cell line was maintained by adding cisplatin 1 μM to culture medium every second passage. Cells were cultured in a humidified incubator at 310 K with 5% CO2 atmosphere and subcultured two or three times a week with appropriate densities and were confirmed to be mycoplasma-free using a standard Hoechst DNA staining method.
(§3) A2780, A2780cis, HeLa, A375, and SK-MEL-28 cells were maintained at logarithmic growth-phase and cultured in 96-well plates at a density of 5000 cells/well in complete medium for 24 h at 310 K, 5% CO2 in a humidified incubator. For hypoxia experiments, a hypoxia condition was set up by Tissue Culture Service at University of Murcia using nitrogen (N2) to displace O2 down to a minimum of 2% in a Forma Steri-Cycle i160 incubator (Thermo Fisher Scientific). Serial dilutions of the compounds were added at the final concentrations in the range of 0–100 μM in a final volume of 100 μL per well. A light-based treatment schedule was performed as follows: 1 h incubation with the compounds in the dark, followed by 1 h incubation under irradiation conditions by placing the Photoreactor EXPO-LED from Luzchem (Canada) fitted with green lamps (final light intensity applied of 1.5 mW/cm^2 at λmax = 520 nm) inside the CO2 incubator. All the cell culture plates subjected to light irradiation included untreated controls to verify that cell viability was not affected by light. Then, treatment-containing media was removed, and fresh media was added for a 48 h cell recovery period; the temperature throughout the experiment remained at 310 K. Dark control samples were placed in the same dark conditions and then kept incubated for 1 h in the dark in the humidified CO2 incubator. Medium was then aspirated by suction, cells were loaded with 50 μL of MTT solution (1 mg/mL) for additional 4 h and then removed, and 50 μL of DMSO was added to solubilize the purple formazan crystals formed in active cells. The absorbance was measured at 570 nm using a microplate reader (FLUOstar Omega), and the IC50 values were calculated based on the inhibitory rate curves using the following equation [drawing 4] 4 where I represents the percentage inhibition of viability observed, Imax is the maximal inhibitory effect, IC50 is the concentration that inhibits 50% of maximal growth, C is the concentration of the treatment, and n is the slope of the semi-logarithmic dose–response sigmoidal curves. The non-linear fitting was performed using SigmaPlot 14.0 software. All experiments were performed in three independent studies with n = 3 replicates per concentration level. For a detailed phototoxicity procedure, ref ([43]) includes technical explanations.

[2] = test system: A2780; experiment: Photo- and cytotoxic activity determination (MTT), A2780 cells; format: cell-based; details: normoxia; for A2780 PI (phototherapeutic index), IC50 dark/IC50 irradiated: 520 nm, dark tested up to 100 μM; for IC50: 48 h drug-free medium
Text: as §1, §2, §3

[3] = test system: A375; experiment: Photo- and cytotoxic activity determination (MTT), A375 cells; format: cell-based, human; details: normoxia; for A375 PI (phototherapeutic index), IC50 dark/IC50 irradiated: 520 nm, dark tested up to 100 μM; for IC50: 48 h drug-free medium
Text: as §1, §2, §3

[4] = test system: A2780cis cells; experiment: Photo- and cytotoxic activity determination (MTT), A2780cis cells, normoxia or hypoxia; format: cell-based; details: for Hypoxia PI (phototherapeutic index) / Normoxia PI (phototherapeutic index): dark tested up to 250 μM; for A2780cis PI (phototherapeutic index), IC50 dark/IC50 irradiated: dark tested up to 100 μM
Text: as §1, §2
as §3, with “Serial dilutions of the compounds were added at the final concentrations in the range of 0–100 μM in a final volume of 100 μL per well.” left out

[5] = A2780cis, hypoxia 2% O2, 520 nm
[6] = A2780cis, hypoxia 2% O2, dark, tested up to 250 μM, read-out: Hypoxia Dark IC50
[7] = A2780cis, normoxia 21% O2, 520 nm
[8] = A2780cis, normoxia 21% O2, dark, tested up to 250 μM, read-out: Normoxia Dark IC50
[9] = Homo sapiens, HeLa, 1 h incubation + 1 h green light 520 nm, 1.5 mW cm^–2, read-out: HeLa light IC50
[10] = Homo sapiens, HeLa, kept in the dark, 2 h treatment, read-out: HeLa dark IC50
[11] = Homo sapiens, A2780, 1 h incubation + 1 h green light 520 nm, 1.5 mW cm^–2, read-out: A2780 light IC50
[12] = Homo sapiens, A2780, kept in the dark, 2 h treatment, read-out: A2780 dark IC50
[13] = Homo sapiens, A-375, 1 h incubation + 1 h green light 520 nm, 1.5 mW cm^–2, read-out: A375 light IC50
[14] = Homo sapiens, A-375, kept in the dark, 2 h treatment, read-out: A375 dark IC50
[15] = 250 μM, A2780cis, 2 h incubation in the dark, 48 h drug-free recovery, hypoxia, read-out: Partial inhibition (% of cell growth inhibition with respect to untreated controls), Hypoxia
[16] = 250 μM, A2780cis, 2 h incubation in the dark, 48 h drug-free recovery, normoxia, read-out: Partial inhibition (% of cell growth inhibition with respect to untreated controls), Normoxia
[17] = A2780cis, hypoxia, 520 nm, read-out: A2780cis Light 520 nm IC50 (microM) Hypoxia
[18] = A2780cis, hypoxia, dark, read-out: A2780cis Dark IC50 (microM) Hypoxia
[19] = A2780cis, normoxia, 1 h incubation + 1 h green light 520 nm, 1.5 mW cm^–2, 48 h drug-free medium, read-out: A2780cis light IC50
[20] = A2780cis, normoxia, kept in the dark, tested up to 100 μM, 2 h treatment, 48 h drug-free medium, read-out: A2780cis dark IC50

SMILES | HeLa PI (phototherapeutic index), IC50 dark/IC50 irradiated [1] | A2780 PI (phototherapeutic index), IC50 dark/IC50 irradiated [2] | A375 PI (phototherapeutic index), IC50 dark/IC50 irradiated [3] | Hypoxia PI (phototherapeutic index) [4, 5] | IC50 [4, 6] | Normoxia PI (phototherapeutic index) [4, 7] | IC50 [4, 8] | A2780cis PI (phototherapeutic index), IC50 dark/IC50 irradiated ([4]; normoxia, 520 nm) | IC50 [1, 9] | IC50 [1, 10] | IC50 [2, 11] | IC50 [2, 12] | IC50 [3, 13] | IC50 [3, 14] | inhibition at 250 µM [4, 15] | inhibition at 250 µM [4, 16] | IC50 [4, 17] | IC50 [4, 18] | IC50 [4, 19] | IC50 [4, 20] | other results
CCCCn1c2[n+](c3cc(C(=O)NCCCNC(=O)C[n+]4ccc(/C(C#N)=C5/C=C(C)c6ccccc6O5)cc4)ccc31)[Ir-3]13([c]4ccccc4-c4[nH]c5ccccc5[n+]41)([c]1ccccc1-c1[nH]c4ccccc4[n+]13)[n+]1c-2ccc2ccccc21 [3b] | > 6 | > 14 | > 1.3 | > 8.1 | > 250 µM | > 4.1 | > 250 µM | > 1.6 | – | – | – | – | – | – | – | – | – | – | – | – | IC50 ([1]; 1 h incubation + 1 h green light 520 nm, 1.5 mW cm^–2, read-out: HeLa light IC50): 18 ± 2 µM; IC50 ([1]; kept in the dark, 2 h treatment, read-out: HeLa dark IC50): > 100 µM; IC50 ([2]; 1 h incubation + 1 h green light 520 nm, 1.5 mW cm^–2, read-out: A2780 light IC50): 7.1 ± 0.1 µM; IC50 ([2]; kept in the dark, 2 h treatment, read-out: A2780 dark IC50): > 100 µM; IC50 ([3]; 1 h incubation + 1 h green light 520 nm, 1.5 mW cm^–2, read-out: A375 light IC50): 78 ± 6 µM; IC50 ([3]; kept in the dark, 2 h treatment, read-out: A375 dark IC50): > 100 µM; Partial inhibition (% of cell growth inhibition with respect to untreated controls), Hypoxia ([4]; 250 μM, A2780cis, 2 h incubation in the dark, 48 h drug-free recovery, hypoxia): 45 ± 6%; Partial inhibition (% of cell growth inhibition with respect to untreated controls), Normoxia ([4]; 250 μM, A2780cis, 2 h incubation in the dark, 48 h drug-free recovery, normoxia): 63 ± 5%; PI (phototherapeutic index), blue light ([4]; A2780cis, 465 nm): > 41.7; IC50 ([4]; A2780cis, 1 h incubation + 1 h blue light 465 nm, 5 mW/cm2, 48 h drug-free, read-out: 465 nm IC50): 2.4 µM; IC50 ([4]; A2780cis, hypoxia 2% O2, 1 h incubation + 1 h green light 520 nm, 48 h drug-free, read-out: Hypoxia 520 nm IC50): 31 µM; IC50 ([4]; hypoxia, dark, read-out: A2780cis Dark IC50 (microM) Hypoxia): > 250 µM; IC50 ([4]; normoxia, 1 h incubation + 1 h green light 520 nm, 1.5 mW cm^–2, 48 h drug-free medium, read-out: A2780cis light IC50): 61 ± 8 µM; IC50 ([4]; normoxia, dark, up to 250 microM, read-out: A2780cis Dark IC50 (microM) Normoxia): > 250 µM; IC50 ([4]; normoxia, kept in the dark, tested up to 100 μM, 2 h treatment, 48 h drug-free medium, read-out: A2780cis dark IC50): > 100 µM
CCN(CC)c1ccc2c(c1)O/C(=C(/C#N)c1cc[n+](C)cc1)C=C2C [1a] | > 17 | > 19 | > 89 | > 100.0 | > 250 µM | > 119.1 | > 250 µM | > 48 | 5.8 ± 0.4 µM | > 100 µM | 5.2 ± 0.5 µM | > 100 µM | 1.1 ± 0.1 µM | > 100 µM | 2.1 ± 0.4% | 3.5 ± 0.9% | 2.5 ± 0.2 µM | > 250 µM | 2.1 ± 0.2 µM | > 100 µM | IC50 ([4]; A2780cis, normoxia, dark, up to 250 microM, read-out: A2780cis Dark IC50 (microM) Normoxia): > 250 µM
CC1=C/C(=C(\C#N)c2cc[n+](C)cc2)Oc2c1cc1c3c2CCCN3CCC1 [1c] | 24 | 57 | 32 | 36.4 | – | 100.0 | – | 100 | 1.1 ± 0.8 µM | 26 ± 4 µM | 0.09 ± 0.01 µM | 5.1 ± 0.9 µM | 0.31 ± 0.02 µM | 9.9 ± 0.5 µM | 100% | 100% | 0.6 ± 0.1 µM | 20 ± 2 µM | 0.15 ± 0.04 µM | 15 ± 2 µM | –

— publication PMC10291553, “Exploring Structure–Activity Relationships in Photodynamic Therapy Anticancer Agents Based on Ir(III)-COUPY Conjugates” (Journal of Medicinal Chemistry, 2023)
